Some test systems named below: SNB-75 CNS; M14 melanoma; NCI-H23 lung; RXF 393 renal; MDA-MB-231 breast; SNB-19 CNS; SF-539 CNS; OVCAR-4 ovarian; OVCAR-5 ovarian; SW-620 colon.
What all share (assay): inhibition of tumour cell growth, NCI panel, 48 h

Several values for one entry are separate records, joined by “and”; a condition that tells them apart may be missing. Equal entries are not always repeated.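 Cultured in 96-well plates, cells were exposed to test compound for 48 hours across five concentrations. GI50 is the concentration that inhibits growth by half. At the TGI there is no net growth.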

As to `CCOC(=O)N1CCN(C(=O)c2ccc(C(F)(F)F)nc2Nc2cc(Cl)ccc2C)CC1`, the GI50 was 1.41 µM with SNB-75 CNS; 23.7 µM in the assay with M14 melanoma; 14.1 µM in the assay with NCI-H23 lung; 14 µM in the assay on RXF 393 renal; 5.22 µM in the assay with MDA-MB-231 breast; more than 100 µM with SNB-19 CNS. Moreover, the GI50 is 33.7 µM in the assay with SF-539 CNS, 11.8 µM in the assay with OVCAR-4 ovarian, 39.4 µM with OVCAR-5 ovarian and 15.4 µM with SW-620 colon. For the same molecule, the TGI is 24.1 µM in the assay with SNB-75 CNS; more than 100 µM with M14 melanoma; 74.5 µM with NCI-H23 lung; 65.2 µM with RXF 393 renal; 21.9 µM in the assay with MDA-MB-231 breast; more than 100 µM with SNB-19 CNS. The TGI in the assay on SF-539 CNS was more than 100 µM; in the assay on OVCAR-4 ovarian, 55.1 µM; with OVCAR-5 ovarian, more than 100 µM; in the assay with SW-620 colon, 92.9 µM.

On to `COC(=O)[C@@H](NC(=O)[C@@H](OC)[C@@H]1Cc2cc3cc(OC4CC(OC5CC(O)C(O)C(C)O5)C(O)C(C)O4)c(C)c(O)c3c(O)c2C(=O)[C@H]1OC1CC(OC2CC(OC3CC(C)(O)C(O)C(C)O3)C(O)C(C)O2)C(O)C(C)O1)C(C)C` (stereo partly drawn), for which the GI50 in the assay with SNB-75 CNS is 0.0849 µM; with M14 melanoma it was 0.147 µM; in the assay on NCI-H23 lung, 0.144 µM; with RXF 393 renal, 0.0822 µM; in the assay on MDA-MB-231 breast, 0.192 µM; with SNB-19 CNS, 0.157 µM. For the same molecule, the GI50 with SF-539 CNS is 0.127 µM; in the assay with OVCAR-4 ovarian, 0.166 µM; with OVCAR-5 ovarian, 0.265 µM; in the assay on SW-620 colon it was 0.121 µM. Further, the TGI was 1.46 µM in the assay on SNB-75 CNS; more than 32.5 µM in the assay with M14 melanoma; 13.5 µM in the assay with NCI-H23 lung; 0.427 µM with RXF 393 renal; 19.9 µM with MDA-MB-231 breast; more than 32.5 µM in the assay on SNB-19 CNS. The TGI with SF-539 CNS was 0.847 µM; in the assay with OVCAR-4 ovarian it was 14 µM; in the assay with OVCAR-5 ovarian, 10.8 µM; in the assay with SW-620 colon, more than 32.5 µM.

For `Fc1ccc(Nc2cc(-n3nnc4ccccc43)nc3ccccc23)cc1`, the GI50 in the assay on SNB-75 CNS is 14.1 µM; in the assay on M14 melanoma, more than 81.7 µM; with NCI-H23 lung it was 49.2 µM; in the assay with RXF 393 renal, 0.781 µM; in the assay on MDA-MB-231 breast, 8.44 µM; in the assay on SF-539 CNS it was 24.6 µM. In addition, the GI50 with OVCAR-4 ovarian was 22.4 µM; in the assay with OVCAR-5 ovarian it was more than 100 µM; in the assay on SW-620 colon, more than 100 µM. Also, the TGI was 45.8 µM with SNB-75 CNS; more than 100 µM with M14 melanoma; more than 100 µM in the assay with NCI-H23 lung; 27.6 µM in the assay with RXF 393 renal; more than 49.2 µM with MDA-MB-231 breast; more than 100 µM with SNB-19 CNS. The TGI in the assay with SF-539 CNS was more than 55.6 µM; with OVCAR-4 ovarian it was more than 80.4 µM; with OVCAR-5 ovarian, more than 100 µM; in the assay with SW-620 colon, more than 100 µM.

For `Cc1cc(NC(=O)c2ccc(C)c(Nc3nccc(-c4cccnc4)n3)c2)cc(-n2cnc(C)c2)c1`, the GI50 is 1.1 µM in the assay on SNB-75 CNS; 2.71 µM in the assay on M14 melanoma; 9.44 µM in the assay with NCI-H23 lung; 1.56 µM in the assay on RXF 393 renal; 1.25 µM in the assay on MDA-MB-231 breast; 5.28 µM in the assay with SNB-19 CNS. Further, the GI50 was 2.09 µM with SF-539 CNS, 0.999 µM in the assay with OVCAR-4 ovarian, 3.54 µM with OVCAR-5 ovarian and 4.7 µM in the assay on SW-620 colon. Moreover, the TGI is 2.81 µM in the assay on SNB-75 CNS; 10.1 µM in the assay on M14 melanoma; more than 34.1 µM with NCI-H23 lung; 4.88 µM with RXF 393 renal; 5.45 µM with MDA-MB-231 breast; 18.1 µM in the assay with SNB-19 CNS. The TGI in the assay with SF-539 CNS was 9.27 µM; in the assay on OVCAR-4 ovarian, 2.19 µM; in the assay with OVCAR-5 ovarian, 10.5 µM; in the assay with SW-620 colon it was 26.4 µM.

Turning to `Cc1n(Cc2ccc3ccccc3c2)cc[n+]1Cc1ccc2ccccc2c1`, the GI50 is 0.626 µM with SNB-75 CNS; 1.12 µM in the assay with M14 melanoma; 0.717 µM with NCI-H23 lung; 0.857 µM in the assay with RXF 393 renal; 1.03 µM in the assay on MDA-MB-231 breast; 0.676 µM in the assay with SNB-19 CNS. The GI50 in the assay with SF-539 CNS was 1.37 µM; in the assay with OVCAR-4 ovarian, 0.381 µM; with OVCAR-5 ovarian, 1.5 µM; in the assay on SW-620 colon, 1.77 µM. The TGI in the assay with SNB-75 CNS was 6.14 µM; in the assay with M14 melanoma it was 3.46 µM; in the assay with NCI-H23 lung it was 2.93 µM; in the assay on RXF 393 renal, 3.4 µM; in the assay on MDA-MB-231 breast it was 2.43 µM; with SNB-19 CNS, 3.13 µM. The TGI in the assay on SF-539 CNS amounted to 7.14 µM; in the assay with OVCAR-4 ovarian it was 6.36 µM; in the assay with OVCAR-5 ovarian it was 5.81 µM; with SW-620 colon, 11.7 µM.

On to `O=C(Nc1cccc(Cl)c1)c1cc2ccccc2cc1O`, for which the GI50 with SNB-75 CNS is 1.62 µM and 1.55 µM; in the assay on M14 melanoma, 3.67 µM and 2.24 µM; in the assay with NCI-H23 lung it was 1.76 µM and 1.03 µM; with RXF 393 renal, 2.74 µM and 2.93 µM; with MDA-MB-231 breast it was 4.65 µM and 2.37 µM; in the assay with SNB-19 CNS, 2.94 µM and 2.37 µM. In addition, the GI50 in the assay on SF-539 CNS was 3.17 µM and 0.577 µM; in the assay on OVCAR-4 ovarian it was 3.39 µM and 2.32 µM; with OVCAR-5 ovarian it was 6.59 µM and 1.98 µM; with SW-620 colon it was 3.14 µM and 3.1 µM. Further, the TGI was more than 100 µM in the assay with SNB-75 CNS; more than 100 µM with M14 melanoma; > 100 µM and 14.5 µM in the assay on RXF 393 renal; > 100 µM and 15.4 µM with MDA-MB-231 breast; more than 100 µM in the assay with SNB-19 CNS; 28.8 µM and > 100 µM in the assay on SF-539 CNS. For the same molecule, the TGI in the assay on OVCAR-4 ovarian, in the assay on OVCAR-5 ovarian and in the assay on SW-620 colon was more than 100 µM throughout.

Turning to `O=C(CN(C1CCCCC1)C1CCCCC1)Nc1ccc(S(=O)(=O)c2ccc(NC(=O)CN(C3CCCCC3)C3CCCCC3)cc2)cc1`, the GI50 in the assay on SNB-75 CNS is 2.27 µM; in the assay on M14 melanoma it was 0.373 µM; with NCI-H23 lung, 1.02 µM; in the assay on RXF 393 renal it was 0.817 µM; in the assay on MDA-MB-231 breast, 0.432 µM; with SNB-19 CNS it was 0.656 µM. Moreover, the GI50 with SF-539 CNS is 0.37 µM; with OVCAR-4 ovarian it was 0.942 µM; in the assay on OVCAR-5 ovarian, 1.13 µM; with SW-620 colon, 0.228 µM. In addition, the TGI in the assay with SNB-75 CNS was 9.32 µM; in the assay on M14 melanoma it was 1.69 µM; in the assay with NCI-H23 lung it was 2.61 µM; in the assay with RXF 393 renal, 2.31 µM; in the assay on MDA-MB-231 breast, 1.63 µM; with SNB-19 CNS, 2.18 µM. Moreover, the TGI with SF-539 CNS was found to be 1.46 µM; with OVCAR-4 ovarian, 2.58 µM; in the assay on OVCAR-5 ovarian, 2.52 µM; in the assay on SW-620 colon, 0.65 µM.
